Laboratory results: patent US11834432B2, “Substituted amino six-membered nitric heterocyclic ring compound and preparation and use thereof” (SHANGHAI INSTITUTE OF MATERIA MEDICA, CHINESE ACADEMY OF …, priority 2016, dated 2023)
Values joined by “and” are separate entries in the source; they are usually repeats but may differ in a detail not shown here. Equal entries are not always repeated.

Columns and labels:
[1] = test system: human lung cancer NCI-H1581 subcutaneously transplanted tumor; test: Growth of subcutaneously transplanted tumor in human lung cancer NCI-H1581 nude mice
Method: The cell strain was inoculated in the right axilla of the nude mice, and the amount of cells inoculated was 5×10^6/mouse to form transplanted tumor, which was directly inoculated and used.
The tumor tissue in the prosperous growth period was cut into 1.5 mm^3, and inoculated subcutaneously in the right axilla of the nude mice under aseptic conditions. The diameter of the transplanted tumor in the nude mice was measured with a vernier caliper, and the animals were randomly grouped when the average volume of tumors was about 150-160 mm^3. […] The solvent control group was given an equal amount of water for injection. The diameter of the transplanted tumor was measured twice a week during the entire experiment, and the body weight of the mice was also weighed. The calculation formula of tumor volume (TV) is: TV=1/2×a×b^2, where a and b respectively represent the length and width of the tumor. The relative tumor volume (RTV) was calculated based on the measured results and the formula was: RTV=Vt/V0, where V0 is the tumor volume measured at grouping and dosing (d0), and Vt is the tumor volume at each measurement.

Pharmacokinetics in rats = format: in vivo; details: male, rat, plasma, SD rats
Method: Seven SD rats, male, weighing 200-220 g, were randomly divided into two groups, 4 or 3 in each group. Compound S10 was administrated by intragastric or intravenous administration.
Rats were fasted for 12 h before test, and had access to water ad libitum. The rats were uniformly fed 2 h after administration of.
Blood sample time point and sample preparation:
intragastric administration: 0.25, 0.5, 1.0, 2.0, 4.0, 6.0, 8.0 and 24 h after administration;
intravenous administration: 5 min, 0.25, 0.5, 1.0, 2.0, 4.0, 6.0, 8.0 and 24 h after administration;
0.3 mL of venous blood was collected at the above time points via the rat eye vein venous plexus, placed in a heparinized test tube, and centrifuged at 11000 rpm for 5 min, and plasma was separated and frozen in a −20° C. refrigerator.
S10 in rat plasma was determined by LC/MS/MS.
The pharmacokinetic parameters after administration were calculated by a non-compartmental model of WinNonlin 6.3 software (Pharsight, USA).
The peak concentration Cmax and the peak time Tmax are measured values; The area under the curve of the drug-time AUC0-t value: calculated by the trapezoidal method; AUC0-∞=AUC0-t+Ct/ke, Ct is the blood concentration of drug at the last measurable time point;
ke is the elimination rate constant;
Elimination half-life t1/2=0.693/ke;
Clearance rate CL=D/AUC0-∞;
Volume of steady state distribution Vss=CL×MRT;

For `CNC(=O)c1cccc2cc(Oc3ccnc(NC(=O)c4ccc(N5C[C@@H](C)N[C@@H](C)C5)cc4)c3)ccc12` [Compound S10], the “Body weight (g) d0” value ([1]; 2.5 mg/kg po qd/14, d0) was 19.8 g, the “TV (mm^3, mean SD) d0” value ([1]; 2.5 mg/kg po qd/14, d0) was 157 ± 43 mm^3 and the “Body weight (g) d14” value ([1]; 2.5 mg/kg po qd/14, d14) was 21.8 g. For the same compound, the “RTV (mean SD)” value ([1]; 2.5 mg/kg po qd/14, d14) was 8.36 ± 2.17, the “T/C (%)” value ([1]; 2.5 mg/kg po qd/14, d14) was 40.19% and 40% and the “TV (mm^3, mean SD) d14” value ([1]; 2.5 mg/kg po qd/14, d14) was 1287 ± 412 mm^3. For the same compound, the “Body weight (g) d0” value ([1]; 5 mg/kg po qd/14, d0) was 19.0 g, the “TV (mm^3, mean SD) d0” value ([1]; 5 mg/kg po qd/14, d0) was 154 ± 53 mm^3 and the “Body weight (g) d14” value ([1]; 5 mg/kg po qd/14, d14) was 21.5 g. The “RTV (mean SD)” value ([1]; 5 mg/kg po qd/14, d14) was 3.57 ± 0.91, the “T/C (%)” value ([1]; 5 mg/kg po qd/14, d14) was 17.18% and 17% and the “TV (mm^3, mean SD) d14” value ([1]; 5 mg/kg po qd/14, d14) was 524 ± 122 mm^3. For the same compound, the “Body weight (g) d0” value ([1]; 10 mg/kg po qd/14, d0) was 19.9 g, the “TV (mm^3, mean SD) d0” value ([1]; 10 mg/kg po qd/14, d0) was 155 ± 45 mm^3 and the “Body weight (g) d14” value ([1]; 10 mg/kg po qd/14, d14) was 23.0 g. For the same compound, the “RTV (mean SD)” value ([1]; 10 mg/kg po qd/14, d14) was 2.09 ± 0.77, the “T/C (%)” value ([1]; 10 mg/kg po qd/14, d14) was 10.03% and 10% and the “TV (mm^3, mean SD) d14” value ([1]; 10 mg/kg po qd/14, d14) was 338 ± 223 mm^3. The “Condition and mortality of animals during the experiment” value ([1]; 10, 5 and 2.5 mg/kg po once a day for two weeks) was “the animals in each group were in good condition and there was no mice died”, the bioavailability (Pharmacokinetics in rats; oral, intragastric 10 mg/kg vs intravenous 5 mg/kg) was 79.6% and the AUC(0-t) (Pharmacokinetics in rats; po, intragastric 10 mg/kg) was 3.43 µg·h/mL. The Cmax (Pharmacokinetics in rats; po, intragastric 10 mg/kg) was 0.399 µg/mL, the Tmax (Pharmacokinetics in rats; po, intragastric 10 mg/kg) was 4.5 h and the half-life (Pharmacokinetics in rats; po, intragastric 10 mg/kg) was 3.55 h. For the same compound, the clearance (Pharmacokinetics in rats; intravenous 5 mg/kg) was 2.45 L/h/kg, the half-life (Pharmacokinetics in rats; intravenous 5 mg/kg) was 3.69 h and the Vd (Pharmacokinetics in rats; intravenous 5 mg/kg, read-out: Vss) was 11.3 L/kg.
